Experimental data published in ChEMBL document CHEMBL3272121, “Hypolipidemic analogues of ethyl 4-benzyloxybenzoate” (J Med Chem, 1977).

Legend:
[1] = tested on: Liver; test: Inhibition of cholesterol biosynthesis from [1-14C]acetate in rat liver slices at 1 X 10^-3 M relative to control; type: functional
[2] = tested on: Liver; test: Inhibition of fatty acid biosynthesis from [1-14C]acetate in rat liver slices at 1 X 10^-3 M relative to control; type: functional
[3] = tested on: Rattus norvegicus; test: Hypolipidemic activity in CFY Sprague-Dawley rat assessed as liver lipid per gm of liver at 0.25% dietary level administered for 7 days relative to control; type: functional
[4] = tested on: Rattus norvegicus; test: Hypolipidemic activity in CFY Sprague-Dawley rat assessed as serum cholesterol level at 1% dietary level administered for 7 days relative to control; type: functional
[5] = tested on: Rattus norvegicus; test: Hypolipidemic activity in CFY Sprague-Dawley rat assessed as serum cholesterol level at 0.1% dietary level administered for 7 days relative to control; type: functional
[6] = tested on: Rattus norvegicus; test: Hypolipidemic activity in CFY Sprague-Dawley rat assessed as serum cholesterol level at 0.25% dietary level administered for 7 days relative to control; type: functional
[7] = tested on: Liver; test: Inhibition of fatty acid biosynthesis from [1-14C]acetate in rat liver slices at 5 X 10^-4 M relative to control; type: functional
[8] = tested on: Rattus norvegicus; test: Hypolipidemic activity in CFY Sprague-Dawley rat assessed as serum triglyceride level at 0.2% dietary level administered for 7 days relative to control; type: functional
[9] = tested on: Rattus norvegicus; test: Hypolipidemic activity in CFY Sprague-Dawley rat assessed as serum triglyceride level at 0.25% dietary level administered for 7 days relative to control; type: functional
[10] = tested on: Rattus norvegicus; test: Hypolipidemic activity in CFY Sprague-Dawley rat assessed as serum triglyceride level at 0.1% dietary level administered for 7 days relative to control; type: functional
[11] = tested on: Rattus norvegicus; test: Hypolipidemic activity in CFY Sprague-Dawley rat assessed as liver lipid per gm of liver at 0.2% dietary level administered for 7 days relative to control; type: functional
[12] = tested on: Rattus norvegicus; test: Hypolipidemic activity in CFY Sprague-Dawley rat assessed as serum cholesterol level at 0.2% dietary level administered for 7 days relative to control; type: functional
[13] = tested on: Liver; test: Inhibition of cholesterol biosynthesis from [1-14C]acetate in rat liver slices at 1 X 10^-4 M relative to control; type: functional
[14] = tested on: Rattus norvegicus; test: Hypolipidemic activity in CFY Sprague-Dawley rat assessed as liver lipid per gm of liver at 0.5% dietary level administered for 7 days relative to control; type: functional
[15] = tested on: Rattus norvegicus; test: Hypolipidemic activity in CFY Sprague-Dawley rat assessed as serum triglyceride level at 0.5% dietary level administered for 7 days relative to control; type: functional
[16] = tested on: Rattus norvegicus; test: Toxicity in CFY Sprague-Dawley rat assessed as body weight gain at 0.25% dietary level administered for 7 days relative to control; type: organism-based; conditions: in vivo, po, 168 h
[17] = tested on: Rattus norvegicus; test: Toxicity in CFY Sprague-Dawley rat assessed as relative liver weight at 1% dietary level administered for 7 days relative to control; type: organism-based; conditions: in vivo, po, 168 h
[18] = tested on: Liver; test: Inhibition of fatty acid biosynthesis from [1-14C]acetate in rat liver slices at 1 X 10^-4 M relative to control; type: functional
[19] = tested on: Rattus norvegicus; test: Toxicity in CFY Sprague-Dawley rat assessed as relative liver weight at 0.25% dietary level administered for 7 days relative to control; type: organism-based; conditions: in vivo, po, 168 h
[20] = tested on: Rattus norvegicus; test: Hypolipidemic activity in CFY Sprague-Dawley rat assessed as serum triglyceride level at 1% dietary level administered for 7 days relative to control; type: functional
[21] = tested on: Rattus norvegicus; test: Toxicity in CFY Sprague-Dawley rat assessed as body weight gain at 0.1% dietary level administered for 7 days relative to control; type: organism-based; conditions: in vivo, po, 168 h
[22] = tested on: Rattus norvegicus; test: Toxicity in CFY Sprague-Dawley rat assessed as relative liver weight at 0.5% dietary level administered for 7 days relative to control; type: organism-based; conditions: in vivo, po, 168 h
[23] = tested on: Rattus norvegicus; test: Toxicity in CFY Sprague-Dawley rat assessed as body weight gain at 1% dietary level administered for 7 days relative to control; type: organism-based; conditions: in vivo, po, 168 h
[24] = tested on: Rattus norvegicus; test: Hypolipidemic activity in CFY Sprague-Dawley rat assessed as liver lipid per gm of liver at 0.1% dietary level administered for 7 days relative to control; type: functional
[25] = tested on: Liver; test: Inhibition of cholesterol biosynthesis from [1-14C]acetate in rat liver slices at […] relative to control; type: functional
[26] = tested on: Rattus norvegicus; test: Toxicity in CFY Sprague-Dawley rat assessed as relative liver weight at 0.2% dietary level administered for 7 days relative to control; type: organism-based; conditions: in vivo, po, 168 h
[27] = tested on: Rattus norvegicus; test: Toxicity in CFY Sprague-Dawley rat assessed as body weight gain at 0.5% dietary level administered for 7 days relative to control; type: organism-based; conditions: in vivo, po, 168 h
[28] = tested on: Rattus norvegicus; test: Hypolipidemic activity in CFY Sprague-Dawley rat assessed as serum cholesterol level at 0.5% dietary level administered for 7 days relative to control; type: functional
[29] = tested on: Rattus norvegicus; test: Hypolipidemic activity in CFY Sprague-Dawley rat assessed as liver lipid per gm of liver at 1% dietary level administered for 7 days relative to control; type: functional
[30] = tested on: Rattus norvegicus; test: Toxicity in CFY Sprague-Dawley rat assessed as body weight gain at 0.2% dietary level administered for 7 days relative to control; type: organism-based; conditions: in vivo, po, 168 h
[31] = tested on: Rattus norvegicus; test: Toxicity in CFY Sprague-Dawley rat assessed as relative liver weight at 0.1% dietary level administered for 7 days relative to control; type: organism-based; conditions: in vivo, po, 168 h

Row | Compound | Activity [3] | Activity [5] | Activity [6] | Activity [9] | Activity [10] | inhibition at 100 µM [13] | Activity [14] | Activity [15] | Activity [16] | inhibition at 100 µM [18] | Activity [19] | Activity [21] | Activity [22] | Activity [24] | Activity [27] | Activity [28] | Activity [31] | other results
1 | CCC(C(=O)O)c1ccccc1 (stereo not drawn) | – | – | – | – | – | – | – | – | – | – | – | – | – | – | – | – | – | inhibition at 1000 µM [1]: 30%; inhibition at 1000 µM [2]: 7%
2 | CCOC(=O)c1ccc(OCc2ccccc2)cc1 | 2% | -9% | -17% | -61% | -14% | 42% | 10% | -41% | 1% | -7% | 8% | 6% | 22% | 0% | -40% | -18% | 9% | Activity [4]: -20%; inhibition at 500 µM [7]: 91%; Activity [8]: -67%; Activity [11]: -3%; Activity [12]: -20%; Activity [17]: 37%; Activity [20]: -29%; Activity [23]: -45%; inhibition at 500 µM [25]: 68%; Activity [26]: 8%; Activity [29]: 9%; Activity [30]: -8%
3 | CCOC(=O)Cc1ccc(OCc2ccc(C)cc2)cc1 | 5% | -8% | -45% | -68% | -49% | – | – | – | -18% | – | 20% | 16% | – | 0% | – | – | 9% | –
4 | CCOC(=O)CCc1ccc(OCc2ccc(F)cc2)cc1 | 7% | – | -20% | -43% | – | 87% | 8% | -59% | -1% | 82% | -5% | – | 15% | – | 4% | -19% | – | –
